Target: T1, SGLT (Oryctolagus cuniculus, UniProt P11170)
T1 construct: To prepare brush border membranes from rabbit small intestine, rabbits were sacrificed; from tissue; host or cells: rabbit small intestine mucosa, brush border membrane vesicles (Mg2+ precipitation)
T1 sequence (P11170 1-662): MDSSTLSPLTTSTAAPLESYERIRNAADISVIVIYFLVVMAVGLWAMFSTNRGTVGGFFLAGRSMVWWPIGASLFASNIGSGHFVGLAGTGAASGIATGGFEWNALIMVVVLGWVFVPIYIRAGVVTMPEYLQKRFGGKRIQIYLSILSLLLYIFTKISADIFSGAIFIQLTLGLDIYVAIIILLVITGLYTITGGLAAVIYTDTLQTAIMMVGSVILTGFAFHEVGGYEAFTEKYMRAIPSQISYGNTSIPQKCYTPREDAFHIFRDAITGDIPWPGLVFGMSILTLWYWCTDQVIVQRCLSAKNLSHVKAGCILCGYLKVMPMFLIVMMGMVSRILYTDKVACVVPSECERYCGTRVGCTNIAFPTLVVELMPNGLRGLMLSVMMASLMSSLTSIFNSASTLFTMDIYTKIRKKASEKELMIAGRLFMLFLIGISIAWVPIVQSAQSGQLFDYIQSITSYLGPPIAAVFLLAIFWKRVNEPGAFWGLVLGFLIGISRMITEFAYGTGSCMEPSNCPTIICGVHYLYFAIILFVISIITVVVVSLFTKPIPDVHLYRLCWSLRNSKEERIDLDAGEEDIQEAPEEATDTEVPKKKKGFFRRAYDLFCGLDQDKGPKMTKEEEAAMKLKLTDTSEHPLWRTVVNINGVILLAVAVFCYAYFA
Assay: Glucose uptake transport assay on rabbit small intestine brush border membrane vesicles
Format: biochemical
Details: uptake of 10 μM [14C]D glucose into rabbit small intestine brush border membrane vesicles, 15 seconds, 30° C., membrane filtration method
Method: Preparation of brush border membrane vesicles from the small intestine of rabbits, rats and pigs
Preparation of brush border membrane vesicles from the intestinal cells of the small intestine was carried out by the so-called Mg^2+ precipitation method. The mucosa of the small intestine was scraped off and suspended in 60 ml of ice-cold Tris/HCl buffer (pH 7.1)/300 mM mannitol, 5 mM EGTA. Dilution to 300 ml with ice-cold distilled water was followed by homogenization with an Ultraturrax (18 shaft, IKA Werk Staufen, FRG) at 75% of the max. power for 2×1 minute, while cooling in ice. After addition of 3 ml of 1M MgCl2 solution (final concentration 10 mM), the mixture is left to stand at 0° C. for exactly 15 minutes. Addition of Mg^2+ causes the cell membranes to aggregate and precipitate with the exception of the brush border membranes. After centrifugation at 3 000×g (5 000 rpm, SS-34 rotor) for 15 minutes, the precipitate is discarded and the supernatant, which contains the brush border membranes, is centrifuged at 26 700×g (15 000 rpm, SS-34 rotor) for 30 minutes. The supernatant is discarded, and the precipitate is rehomogenized in 60 ml of 12 mM Tris/HCl buffer (pH 7.1)/60 mM mannitol, 5 mM EGTA using a Potter Elvejhem homogenizer (Braun, Melsungen, 900 rpm, 10 strokes). Addition of 0.1 ml of 1M MgCl2 solution and incubation at 0° C. for 15 minutes is followed by centrifugation again at 3 000×g for 15 minutes. The supernatant is then centrifuged again at 46 000×g (20 000 rpm, SS-34 rotor) for 30 minutes. The precipitate is taken up in 30 ml of 20 mM Tris/Hepes buffer (pH 7.4)/280 mM mannitol and homogeneously resuspended by 20 strokes in a Potter Elvejhem homogenizer at 1 000 rpm. After centrifugation at 48 000×g (20 000 rpm, SS-34 rotor) for 30 minutes, the precipitate was taken up in 0.5 to 2 ml of Tris/Hepes buffer (pH 7.4)/280 mM mannitol (final concentration 20 mg/ml) and resuspended using a tuberculin syringe with a 27 gauge needle. […]
The uptake of [^14C]-labeled glucose into brush border membrane vesicles was measured by the membrane filtration method. […]

SMILES | IC50
COc1ccc(Cc2sc3ccccc3c2OC2OC(CO)C(F)C(O)C2O)cc1 (stereo not drawn) [Example 2] | 400 nM
COc1ccc(Cc2sccc2OC2OC(CO)C(F)C(O)C2O)cc1 (single isomer, unassigned) [Example 1] | 4000 nM
COc1ccc(Cc2sccc2OC2OC(CO)C(F)C(O)C2O)cc1 (single isomer, unassigned) [Example 3] | 300 nM

— patent US20040259819A1, “Novel heterocyclic fluoroglycoside derivatives, medicaments containing these compounds, and the use thereof” (Aventis Pharma Deutschland GmbH, priority 2002, published 2004)
